# According to patent US20250034135A1, “ANTI-APOPTOTIC PROTEIN BCL-2 INHIBITOR, PHARMACEUTICAL COMPOSITION AND USES THEREOF” (HANGZHOU HEALZEN THERAPEUTICS CO., LTD., priority 2021, published 2025):
# Target: BCL2 (Homo sapiens (Human), UniProt P10415)
# Test: Molecular level activity test of anti-apoptotic protein BCL2 (HTRF, binding to Bim peptide)
# Details: HTRF, binding of BCL2 to Bim peptide; read-out: BCL2 nM (inhibitory activity, IC50)
# Procedure, shortened: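 HTRF readout; His-BCL2 + biotin-BIM peptide + cpd (2% DMSO in compound addition), 1 h; then anti-His + SA-XL665 detection reagents, 4 h RT.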
# Sequence of BCL2 (P10415 whole entry): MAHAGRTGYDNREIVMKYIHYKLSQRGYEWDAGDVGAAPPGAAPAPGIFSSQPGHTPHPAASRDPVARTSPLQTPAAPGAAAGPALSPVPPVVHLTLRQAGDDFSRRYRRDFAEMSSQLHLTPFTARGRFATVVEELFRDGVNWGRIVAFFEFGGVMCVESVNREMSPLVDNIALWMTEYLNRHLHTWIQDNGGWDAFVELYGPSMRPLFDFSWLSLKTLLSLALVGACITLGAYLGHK
row,SMILES,IC50 [nM]
1,"COc1ccc(CN2CCN(C3CC4(CCN(c5cc(Oc6cnc7[nH]ccc7c6)c(C(=O)NS(=O)(=O)c6cc([N+](=O)[O-])c(NCC7(F)CCOCC7)c7scnc67)cn5)CC4)C3)[C@H](c3ccccc3C(C)C)C2)cc1 [compound 134, (R)-4-((1H-pyrrolo[2,3-b]pyridine-5-yl)oxy)-N-((7-(((4-fluorotetrahydro-2H-pyran-4-yl)methyl)amino)-6-nitrobenzo[d]thiazol-4-yl)sulfonyl)-6-(2-(2-(2-isopropylphenyl)-4-(4-methoxybenzyl)piperazin-1-yl)-7-azaspiro[3.5]non-7-yl) nicotinamide]",< 10
2,"COc1ccc(CN2CCN(C3CC4(CCN(c5cc(Oc6cnc7[nH]ccc7c6)c(C(=O)NS(=O)(=O)c6ccc(NCC7CCOCC7)c([N+](=O)[O-])c6)cc5F)CC4)C3)C(c3ccccc3C(C)C)C2)cc1 (stereo not shown) [compound 064, 2-((1H-pyrrolo[2,3-b]pyrid-5-yl)oxy)-5-fluoro-4-(2-(2-(2-isopropylphenyl)-4-(4-methoxybenzyl)piperazin-1-yl)-7-azaspiro[3.5]non-7-yl)-N-((3-nitro-4-(((tetrahydro-2H-pyran-4-yl)methyl)amino)phenyl)sulfonyl)benzamide]",< 10
3,"CC(C)c1ccccc1[C@@H]1CCCN1C1CC2(CCN(c3ccc(C(=O)NS(=O)(=O)c4cc([N+](=O)[O-])c(NC[C@H]5CC[C@](C)(O)CC5)c5c4OCO5)c(Oc4cnc5[nH]ccc5c4)c3)CC2)C1 [compound 158, 2-((1H-pyrrolo[2,3-b]pyrid-5-yl)oxy)-N-((7-((((1r, 4r)-4-hydroxy-4-methylcyclohexyl)methyl)amino)-6-nitrobenzo[d][1,3]dioxocyclopent-4-yl)sulfonyl)-4-(2-((S)-2-(2-isopropylphenyl)pyrrolidin-1-yl)-7-azaspiro[3.5]non-7-yl)benzamide]",< 10
4,"COc1ccc(CN2CCN(C3CC4(CCN(c5cc(Oc6cnc7[nH]ccc7c6)c(C(=O)NS(=O)(=O)c6cc([N+](=O)[O-])c(NCC7(F)CCOCC7)c7c6OCO7)cn5)CC4)C3)[C@H](c3ccccc3C(C)C)C2)cc1 [compound 132, (R)-4-((1H-pyrrolo[2,3-b]pyrid-5-yl)oxy)-N-((7-(((4-fluorotetrahydro-2H-pyran-4-yl)methyl)amino)-6-nitrobenzo[d][1,3]dioxocyclopent-4-yl)sulfonyl)-6-(2-(2-(2-isopropylphenyl)-4-(4-methoxybenzyl)piperazin-1-yl)-7-azaspiro[3.5]non-7-yl) nicotinamide]",< 10
5,"COc1ccc(CN2CCN(C3CC4(CCN(c5cc(Oc6cnc7[nH]ccc7c6)c(C(=O)NS(=O)(=O)c6cc([N+](=O)[O-])c(NCC7(F)CCOCC7)c7occc67)cc5F)CC4)C3)[C@H](c3ccccc3C(C)C)C2)cc1 [compound 109, (R)-2-((1H-pyrrolo[2,3-b]pyrid-5-yl)oxy)-5-fluoro-N-((7-(((4-fluorotetrahydro-2H-pyran-4-yl)methyl)amino)-6-nitrobenzofuran-4-yl)sulfonyl)-4-(2-(2-(2-isopropylphenyl)-4-(4-methoxybenzyl)piperazin-1-yl)-7-azaspiro[3.5]non-7-yl)benzamide]",< 10
6,"COc1ccc(CN2CCN(C3CC4(CCN(c5cc(Oc6cnc7[nH]ccc7c6)c(C(=O)NS(=O)(=O)c6cc([N+](=O)[O-])c(NCC7(F)CCOCC7)c7ccoc67)cc5F)CC4)C3)[C@H](c3ccccc3C(C)C)C2)cc1 [compound 143, (R)-2-((1H-pyrrolo[2,3-b]pyrid-5-yl)oxy)-5-fluoro-N-((4-(((4-fluorotetrahydro-2H-pyran-4-yl)methyl)amino)-5-nitrobenzofuran-7-yl)sulfonyl)-4-(2-(2-(2-isopropylphenyl)-4-(4-methoxybenzyl)piperazin-1-yl)-7-azaspiro[3.5]non-7-yl)benzamide]",< 10
7,"CC(C)c1ccccc1[C@@H]1CN(Cc2ccccn2)CCN1C1CC2(CCN(c3cc(Oc4cnc5[nH]ccc5c4)c(C(=O)NS(=O)(=O)c4ccc(NC[C@H]5CC[C@](C)(O)CC5)c([N+](=O)[O-])c4)cc3F)CC2)C1 [compound 233, 2-((1H-pyrrolo[2,3-b]pyrid-5-yl)oxy)-5-fluoro-N-((4-((((1r, 4r)-4-hydroxy-4-methylcyclohexyl)methyl)amino)-3-nitrophenyl)sulfonyl)-4-(2-((R)-2-(2-isopropylphenyl)-4-(pyrid-2-ylmethyl)piperazin-1-yl)-7-azaspiro[3.5]non-7-yl)benzamide]",< 10
8,"CC(C)c1ccccc1[C@@H]1CCCN1C1CC2(CCN(c3cc(Oc4cnc5[nH]ccc5c4)c(C(=O)NS(=O)(=O)c4cc([N+](=O)[O-])c(NCC5(F)CCOCC5)c5ocnc45)cc3F)CC2)C1 [compound 103, (S)-2-((1H-pyrrolo[2,3-b]pyrid-5-yl)oxy)-5-fluoro-N-((7-(((4-fluorotetrahydro-2H-pyran-4-yl)methyl)amino)-6-nitrobenzo[d]oxazol-4-yl)sulfonyl)-4-(2-(2-(2-isopropylphenyl)pyrrolidin-1-yl)-7-azaspiro[3.5]non-7-yl)benzamide]",< 10
9,"CC(C)c1ccccc1[C@@H]1CCCN1C1CC2(CCN(c3cc(Oc4cnc5[nH]ccc5c4)c(C(=O)NS(=O)(=O)c4cc([N+](=O)[O-])c(NCC5(F)CCN(C(=O)CN(C)C)CC5)c5[nH]cnc45)cc3F)CC2)C1 [compound 030, (S)-2-((1H-pyrrolo[2,3-b]pyrid-5-yl)oxy)-N-((7-(((1-(dimethylglycyl)-4-fluoropiperid-4-yl)methyl)amino)-6-nitro-1H-benzo[d]imidazol-4-yl)sulfonyl)-5-fluoro-4-(2-(2-(2-isopropylphenyl)pyrrolidin-1-yl)-7-azaspiro[3.5]non-7-yl)benzamide]",< 10

# Second part, the compound after the results:
row,IC50 [nM],SMILES
1,< 10,"COc1ccc(CN2CCN(C3CC4(CCN(c5ccc(C(=O)NS(=O)(=O)c6cc([N+](=O)[O-])c(NCC7CCOCC7)c7[nH]cnc67)c(N6CCOc7nc8[nH]ccc8cc76)c5)CC4)C3)C(c3ccccc3C(C)C)C2)cc1 (stereo not shown) [compound 091, 2-(2,3-dihydropyrrolo[3′,2′:5,6]pyridino[2,3-b][1,4]oxazin-1 (6H)-yl)-4-(2-(2-(2-isopropylphenyl)-4-(4-methoxybenzyl)piperazin-1-yl)-7-azaspiro[3.5]non-7-yl)-N-((6-nitro-7-(((tetrahydro-2H-pyran-4-yl)methyl)amino)-1H-benzo[d]imidazol-4-yl)sulfonyl)benzamide]"
2,< 10,"CC(C)c1ccccc1[C@@H]1CCCN1C1CC2(CCN(c3cc(Oc4cnc5[nH]ccc5c4)c(C(=O)NS(=O)(=O)c4cc([N+](=O)[O-])c(NCC5(F)CCN(C6CCOCC6)CC5)c5[nH]cnc45)cc3F)CC2)C1 [compound 024, (S)-2-((1H-pyrrolo[2,3-b]pyrid-5-yl)oxy)-5-fluoro-N-((7-(((4-fluoro-1-(tetrahydro-2H-pyran-4-yl)piperid-4-yl)methyl)amino)-6-nitro-1H-benzo[d]imidazol-4-yl)sulfonyl)-4-(2-(2-(2-isopropylphenyl)pyrrolidin-1-yl)-7-azaspiro[3.5]non-7-yl)benzamide]"
3,< 10,COc1ccc(CN2CCN(C3CC4(CCN(c5cc(Oc6cnc7[nH]ccc7c6)c(C(=O)NS(=O)(=O)c6cc([N+](=O)[O-])c(NCC7(F)CCOCC7)c7scnc67)cc5F)CC4)C3)[C@H](c3ccccc3C(C)C)C2)cc1 [compound 108]
4,< 10,"CC(C)c1ccccc1C1CN(C2CCOCC2)CCN1C1CC2(CCN(c3cc(Oc4cnc5[nH]ccc5c4)c(C(=O)NS(=O)(=O)c4ccc(NC[C@H]5CC[C@](C)(O)CC5)c([N+](=O)[O-])c4)cn3)CC2)C1 (stereo partly shown) [compound 051, 4-((1H-pyrrolo[2,3-b]pyrid-5-yl)oxy)-N-((4-((((1r,4r)-4-hydroxy-4-methylcyclohexyl)methyl)amino)-3-nitrophenyl)sulfonyl)-6-(2-(2-(2-isopropylphenyl)-4-(tetrahydro-2H-pyran-4-yl)piperazin-1-yl)-7-azaspiro[3.5]non-7-yl) nicotinamide]"
5,< 10,"COc1ccc(CN2CCN(C3CC4(CCN(c5cc(Oc6cnc7[nH]ccc7c6)c(C(=O)NS(=O)(=O)c6cc([N+](=O)[O-])c(NC[C@H]7CC[C@](C)(O)CC7)c7c6CCO7)cc5F)CC4)C3)[C@H](c3ccccc3C(C)C)C2)cc1 [compound 119, 2-((1H-pyrrolo[2,3-b]pyrid-5-yl)oxy)-5-fluoro-N-((7-((((1r, 4r)-4-hydroxy-4-methylcyclohexyl)methyl)amino)-6-nitro-2,3-dihydrobenzofuran-4-yl)sulfonyl)-4-(2-((R)-2-(2-isopropylphenyl)-4-(4-methoxybenzyl)piperazin-1-yl)-7-azaspiro[3.5]non-7-yl)benzamide]"
6,< 10,"COc1ccc(CN2CCN(C3CC4(CCN(c5ccc(C(=O)NS(=O)(=O)c6cc([N+](=O)[O-])c(NCC7(F)CCOCC7)c7[nH]cnc67)c(N6CCCOc7nc8[nH]ccc8cc76)c5)CC4)C3)C(c3ccccc3C(C)C)C2)cc1 (stereo not shown) [compound 094, 2-(3,4-dihydro-2H-pyrrolo[3′,2′:5,6]pyridino[2,3-b][1,4]oxazacycloheptane-1 (7H)-yl)-N-((7-(((4-fluorotetrahydro-2H-pyran-4-yl)methyl)amino)-6-nitro-1H-benzo[d]imidazol-4-yl)sulfonyl)-4-(2-(2-(2-isopropylphenyl)-4-(4-methoxybenzyl)piperazin-1-yl)-7-azaspiro[3.5]non-7-yl)benzamide]"
7,< 10,"CC(C)c1ccccc1[C@@H]1CCCN1C1CC2(CCN(c3ccc(C(=O)NS(=O)(=O)c4cc([N+](=O)[O-])c(NC[C@H]5CC[C@](C)(O)CC5)c5[nH]ccc45)c(Oc4cnc5[nH]ccc5c4)c3)CC2)C1 [compound 009, 2-((1H-pyrrolo[2,3-b]pyrid-5-yl)oxy)-N-((7-((((1r,4r)-4-hydroxy-4-methylcyclohexyl)methyl)amino)-6-nitro-1H-indol-4-yl)sulfonyl)-4-(2-((S)-2-(2-isopropylphenyl)pyrrolidin-1-yl)-7-azaspiro[3.5]non-7-yl)benzamide]"
